# Measurements taken from ChEMBL document CHEMBL5465560, “Selectivity Literature for EUbOPEN Chemogenomic Library” (2024).
# Substitutions are numbered along the chain they refer to.
# What was measured:
# [1] = tested on: T1, Receptor-type tyrosine-protein kinase FLT3 (Homo sapiens), P36888 [N841I]; experiment: (§1) Selectivity interaction (KinomeScan (DiscoverX)) EUB0000655a FLT3; settings: at 10 µM
# T1 sequence (whole entry): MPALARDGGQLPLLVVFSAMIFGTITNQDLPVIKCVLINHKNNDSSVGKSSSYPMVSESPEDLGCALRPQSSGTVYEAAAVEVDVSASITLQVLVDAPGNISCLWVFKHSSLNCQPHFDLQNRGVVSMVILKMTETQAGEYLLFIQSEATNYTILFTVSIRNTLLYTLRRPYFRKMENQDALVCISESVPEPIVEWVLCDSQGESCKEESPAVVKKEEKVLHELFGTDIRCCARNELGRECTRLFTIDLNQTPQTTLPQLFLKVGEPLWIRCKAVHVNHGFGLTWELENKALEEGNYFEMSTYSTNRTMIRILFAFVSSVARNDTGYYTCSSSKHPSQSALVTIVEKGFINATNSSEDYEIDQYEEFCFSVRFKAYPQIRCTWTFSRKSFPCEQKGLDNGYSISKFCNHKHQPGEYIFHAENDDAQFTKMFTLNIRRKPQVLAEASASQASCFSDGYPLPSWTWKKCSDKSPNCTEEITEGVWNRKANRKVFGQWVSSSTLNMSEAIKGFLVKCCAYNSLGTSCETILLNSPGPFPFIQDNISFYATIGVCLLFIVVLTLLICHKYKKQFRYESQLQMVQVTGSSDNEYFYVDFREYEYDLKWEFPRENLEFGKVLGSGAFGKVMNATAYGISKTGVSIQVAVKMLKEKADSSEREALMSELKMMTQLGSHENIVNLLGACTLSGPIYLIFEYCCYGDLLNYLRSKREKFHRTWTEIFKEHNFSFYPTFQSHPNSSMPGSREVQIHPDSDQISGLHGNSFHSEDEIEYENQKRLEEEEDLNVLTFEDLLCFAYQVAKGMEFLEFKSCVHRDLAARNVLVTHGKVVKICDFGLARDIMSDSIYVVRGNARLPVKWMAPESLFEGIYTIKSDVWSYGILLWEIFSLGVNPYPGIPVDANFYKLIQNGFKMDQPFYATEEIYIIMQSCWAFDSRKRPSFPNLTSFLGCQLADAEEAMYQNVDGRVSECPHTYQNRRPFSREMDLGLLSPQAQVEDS
# [2] = tested on: T2, Receptor-type tyrosine-protein kinase FLT3 (Homo sapiens), P36888 [R834Q]; experiment: as §1; settings: at 10 µM
# T2 sequence (whole entry): T1 sequence (whole entry) with R834Q, I841N
# [3] = target: T3, Bone morphogenetic protein receptor type-2 (Homo sapiens) (UniProt Q13873); experiment: Selectivity interaction (KinomeScan (DiscoverX)) EUB0000655a BMPR2; settings: at 10 µM
# T3 sequence (whole entry): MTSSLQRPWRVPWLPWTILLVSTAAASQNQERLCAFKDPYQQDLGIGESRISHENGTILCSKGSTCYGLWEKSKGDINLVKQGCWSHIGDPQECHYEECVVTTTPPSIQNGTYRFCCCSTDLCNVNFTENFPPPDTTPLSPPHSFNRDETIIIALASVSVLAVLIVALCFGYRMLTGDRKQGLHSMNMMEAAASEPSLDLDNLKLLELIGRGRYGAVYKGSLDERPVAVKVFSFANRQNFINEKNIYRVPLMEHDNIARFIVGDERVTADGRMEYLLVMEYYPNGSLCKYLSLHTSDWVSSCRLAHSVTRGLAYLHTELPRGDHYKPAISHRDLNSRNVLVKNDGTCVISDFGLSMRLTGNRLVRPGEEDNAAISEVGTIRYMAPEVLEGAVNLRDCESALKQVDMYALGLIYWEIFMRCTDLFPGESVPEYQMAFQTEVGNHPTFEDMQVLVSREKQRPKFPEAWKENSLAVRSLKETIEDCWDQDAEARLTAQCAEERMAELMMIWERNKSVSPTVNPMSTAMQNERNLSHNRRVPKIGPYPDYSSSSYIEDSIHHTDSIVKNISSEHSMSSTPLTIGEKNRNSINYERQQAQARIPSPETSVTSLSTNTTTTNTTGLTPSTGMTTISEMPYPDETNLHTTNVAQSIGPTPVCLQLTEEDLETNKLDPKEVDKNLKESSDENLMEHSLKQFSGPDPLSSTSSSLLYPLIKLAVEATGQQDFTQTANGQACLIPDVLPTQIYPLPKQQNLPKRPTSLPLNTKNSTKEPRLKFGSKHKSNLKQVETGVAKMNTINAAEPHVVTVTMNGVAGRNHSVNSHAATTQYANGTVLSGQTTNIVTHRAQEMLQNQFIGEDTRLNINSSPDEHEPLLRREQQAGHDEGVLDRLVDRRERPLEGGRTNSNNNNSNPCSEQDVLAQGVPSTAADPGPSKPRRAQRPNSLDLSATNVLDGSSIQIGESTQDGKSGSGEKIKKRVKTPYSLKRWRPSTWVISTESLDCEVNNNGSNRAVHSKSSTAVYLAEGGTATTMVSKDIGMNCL
# [4] = target: Homeodomain-interacting protein kinase 2 (Homo sapiens, UniProt Q9H2X6); experiment: Selectivity interaction (Enzymatic assay (Eurofins)) EUB0001049a HIPK2
# Sequence of Homeodomain-interacting protein kinase 2 (Q9H2X6 whole entry): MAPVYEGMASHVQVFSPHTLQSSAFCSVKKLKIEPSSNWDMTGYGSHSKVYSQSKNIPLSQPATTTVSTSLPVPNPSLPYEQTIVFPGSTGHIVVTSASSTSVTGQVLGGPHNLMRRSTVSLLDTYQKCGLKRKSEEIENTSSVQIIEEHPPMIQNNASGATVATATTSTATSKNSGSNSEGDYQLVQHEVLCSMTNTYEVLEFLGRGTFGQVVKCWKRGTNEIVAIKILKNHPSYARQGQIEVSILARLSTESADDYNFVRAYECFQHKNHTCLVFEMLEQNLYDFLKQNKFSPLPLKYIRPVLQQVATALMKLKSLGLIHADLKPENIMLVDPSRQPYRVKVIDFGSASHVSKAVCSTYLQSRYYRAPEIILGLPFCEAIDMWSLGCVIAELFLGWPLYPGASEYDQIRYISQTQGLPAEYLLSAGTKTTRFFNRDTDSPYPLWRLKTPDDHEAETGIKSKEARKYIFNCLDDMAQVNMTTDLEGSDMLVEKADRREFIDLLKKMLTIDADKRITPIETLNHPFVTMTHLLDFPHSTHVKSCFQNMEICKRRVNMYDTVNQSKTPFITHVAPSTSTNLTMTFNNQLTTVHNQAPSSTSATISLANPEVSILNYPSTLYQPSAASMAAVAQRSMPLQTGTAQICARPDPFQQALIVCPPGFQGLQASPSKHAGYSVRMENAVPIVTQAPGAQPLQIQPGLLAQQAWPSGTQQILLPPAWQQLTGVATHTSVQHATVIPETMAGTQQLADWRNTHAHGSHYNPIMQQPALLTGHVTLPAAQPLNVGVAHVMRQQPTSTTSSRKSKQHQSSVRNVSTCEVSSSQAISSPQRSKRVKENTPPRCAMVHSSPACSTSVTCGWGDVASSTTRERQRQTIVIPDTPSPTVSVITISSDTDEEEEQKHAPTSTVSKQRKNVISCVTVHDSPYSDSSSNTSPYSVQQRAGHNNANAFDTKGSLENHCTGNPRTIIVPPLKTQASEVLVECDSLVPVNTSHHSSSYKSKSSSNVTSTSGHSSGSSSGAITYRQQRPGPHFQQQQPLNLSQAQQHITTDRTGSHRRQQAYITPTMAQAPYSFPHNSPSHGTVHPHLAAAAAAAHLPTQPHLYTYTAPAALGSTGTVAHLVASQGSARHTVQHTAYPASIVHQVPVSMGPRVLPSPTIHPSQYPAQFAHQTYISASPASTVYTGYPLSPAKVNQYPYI
SMILES,% of control [1] [%],% of control [2] [%],% of control [3] [%],IC50 [4] [µM]
CN(C)CCOc1ccc(-c2nc(-c3ccncc3)c(-c3ccc4c(c3)CC/C4=N\O)[nH]2)cc1,81,100,47,–
COc1cc(Nc2nc(C)cc(-c3cnn4nc(OC)ccc34)n2)cc(C(F)(F)F)c1,–,–,–,> 10
